# Reference: patent US5352804A, “Isolation and structure of Halistatin 2” (Arizona Board of Regents, a body corporate, acting on …, priority 1993, dated 1994)
# Like-named read-outs stand apart in the source and are kept apart here.
# Columns and labels:
# Assay in all cases: NCI human tumor in vitro primary screen
# Type in all cases: cell-based
# [1] = test system: UACC-257; conditions: melanoma
# From the text: (§1) Only two hundred years ago, many diseases ravaged humankind. Many of these diseases now have been controlled or eradicated. In the development of the means to treat or control these diseases, work with the appropriate common experimental animals was of critical importance. With the various types of cancers, and with the HIV virus, such work is presently ongoing. The research for the treatment of various types of cancer is coordinated in the United States by the National Cancer Institute (NCI). NCI, as a government entity, has been charged with assisting anti-cancer research. To establish whether a substance has anti cancer activity, NCI has established a variety of protocols, one of which involves testing the candidate substance against a cell line panel containing 60 human tumor cell lines. This protocol has been verified and is generally accepted throughout the scientific community. This protocol and the established statistical means of evaluating the results obtained therefrom have been fully described in the literature. See Principles & Practice of Oncology PPO Updates, Volume 3, Number 10, Oct. 1989, by Michael R. Boyd, M.D., Ph.D., for an indepth description of the test protocol. The statistical analysis is explained in "Display and Analysis of Patterns of Differential Activity of Drugs Against Human Tumor Cell Lines: Development of Means Graph and COMPARE Algorithm" Journal of the National Cancer Institute Reports Vol. 81, No. 14, Pg. 1088, Jul. 14, 1989, by K. D. Paull et al. Both of these references are incorporated herein by this reference thereto.
# (§2) Biological Testing; Data Display and Analysis; Screening Data Summary. Freshly isolated halistatin 2 was tested in the NCI's human tumor, disease-oriented in vitro primary screen, and data calculations performed. Table 3 is a composite prepared from mean graphs constructed from the averaged GI50 values from quadruplicate screenings of Halistatin 2.
# [2] = test system: OVCAR-5; conditions: ovarian cancer
# From the text: as §1, §2
# [3] = test system: U251; conditions: U-251, CNS cancer
# From the text: as §1, §2
# [4] = test system: SNB-19; conditions: CNS cancer
# From the text: as §1, §2
# [5] = test system: MOLT-4; conditions: leukemia
# From the text: as §1, §2
# [6] = test system: SK-MEL-2; conditions: melanoma
# From the text: as §1, §2
# [7] = test system: HL-60TB; conditions: leukemia
# From the text: as §1, §2
# [8] = test system: UO-31; conditions: renal cancer
# From the text: as §1, §2
# [9] = test system: TK-10; conditions: renal cancer
# From the text: as §1, §2
# [10] = test system: LXFL 529
# From the text: as §1, §2
# [11] = test system: UACC-62; conditions: melanoma
# From the text: as §1, §2
# [12] = test system: NCI-H226
# From the text: as §1, §2
# [13] = test system: KM12; conditions: colon cancer
# From the text: as §1, §2
# [14] = test system: SF-268; conditions: CNS cancer
# From the text: as §1, §2
# [15] = test system: KM 20L2
# From the text: as §1, §2
# [16] = test system: NCI-H460
# From the text: as §1, §2
# [17] = test system: HT29; conditions: HT-29, colon cancer
# From the text: as §1, §2
# [18] = test system: ACHN; conditions: renal cancer
# From the text: as §1, §2
# [19] = test system: RXF-393
# From the text: as §1, §2
# [20] = test system: SK-MEL-28; conditions: melanoma
# From the text: as §1, §2
# [21] = test system: OVCAR-4; conditions: ovarian cancer
# From the text: as §1, §2
# [22] = test system: SNB-75; conditions: CNS cancer
# From the text: as §1, §2
# [23] = test system: 786-0; conditions: renal cancer
# From the text: as §1, §2
# [24] = read-out: Log10 GI50 (converted)
# [25] = read-out: Log10 TGI (converted)
# [26] = read-out: averaged negative log10 GI50 (converted)
# [27] = non-small cell lung cancer, read-out: averaged negative log10 GI50 (converted)
smiles,measurement,setting,value
C=C1CC2CCC34CC5OC6C(O3)C3OC(CCC3OC6(O)C5O4)CC(=O)OC3C(CC4OC(CCC1O2)CC(C)C4=C)OC1CC2OC4(CC2OC1C3C)CC1OC2(CC(C)C3OC5CC(C(O)CO)OC5CC3O2)CC(C)C1O4 (stereo not drawn) [halistatin 2],GI50,[1]; [24],2.29 nM
same,IC (TGI),[1]; [25],10 nM
same,GI50,[1]; [26],2.29 nM
same,GI50,[2]; [24],1.82 nM
same,IC (TGI),[2]; [25],10 nM
same,GI50,[2]; [26],1.82 nM
same,GI50,[3]; [24],0.479 nM
same,IC (TGI),[3]; [25],9.33 nM
same,GI50,[3]; [26],0.479 nM
same,GI50,[4]; [24],2.09 nM
same,IC (TGI),[4]; [25],10 nM
same,GI50,[4]; [26],2.09 nM
same,GI50,[5]; [24],0.407 nM
same,IC (TGI),[5]; [25],10 nM
same,GI50,[5]; [26],0.407 nM
same,GI50,[6]; [24],0.309 nM
same,IC (TGI),[6]; [25],4.57 nM
same,GI50,[6]; [26],0.309 nM
same,GI50,"[7]; HL-60(TB), read-out: Log10 GI50 (converted)",0.158 nM
same,IC (TGI),"[7]; HL-60(TB), read-out: Log10 TGI (converted)",1 nM
same,GI50,"[7]; HL-60TB, read-out: averaged negative log10 GI50 (converted)",0.158 nM
same,GI50,[8]; [24],6.03 nM
same,IC (TGI),[8]; [25],10 nM
same,GI50,[8]; [26],6.03 nM
same,GI50,[9]; [24],5.5 nM
same,IC (TGI),[9]; [25],10 nM
same,GI50,[9]; [26],5.5 nM
same,GI50,"[10]; LXFL529, non-small cell lung cancer, read-out: Log10 GI50 (converted)",0.447 nM
same,IC (TGI),"[10]; LXFL529, non-small cell lung cancer, read-out: Log10 TGI (converted)",10 nM
same,GI50,[10]; [27],0.447 nM
same,GI50,[11]; [24],0.339 nM
same,IC (TGI),[11]; [25],10 nM
same,GI50,[11]; [26],0.339 nM
same,GI50,"[12]; NCl-H226, non-small cell lung cancer, read-out: Log10 GI50 (converted)",0.724 nM
same,IC (TGI),"[12]; NCl-H226, non-small cell lung cancer, read-out: Log10 TGI (converted)",3.72 nM
same,GI50,[12]; [27],0.724 nM
same,GI50,[13]; [24],0.537 nM
same,IC (TGI),[13]; [25],10 nM
same,GI50,[13]; [26],0.537 nM
same,GI50,[14]; [24],1.82 nM
same,IC (TGI),[14]; [25],10 nM
same,GI50,[14]; [26],1.82 nM
same,GI50,"[15]; KM 20L2, colon cancer, read-out: averaged negative log10 GI50 (converted)",0.427 nM
same,GI50,"[15]; KM-20L2, printed KM2012, colon cancer, read-out: Log10 GI50 (converted)",0.427 nM
same,IC (TGI),"[15]; KM-20L2, printed KM2012, colon cancer, read-out: Log10 TGI (converted)",1.91 nM
same,GI50,"[16]; NCl-H460, non-small cell lung cancer, read-out: Log10 GI50 (converted)",0.38 nM
same,IC (TGI),"[16]; NCl-H460, non-small cell lung cancer, read-out: Log10 TGI (converted)",6.76 nM
same,GI50,[16]; [27],0.38 nM
same,GI50,[17]; [24],0.457 nM
same,IC (TGI),[17]; [25],3.72 nM
same,GI50,[17]; [26],0.457 nM
same,GI50,[18]; [24],4.37 nM
same,IC (TGI),[18]; [25],10 nM
same,GI50,[18]; [26],4.37 nM
same,GI50,"[19]; RXF 393, printed RXP-393, renal cancer, read-out: Log10 GI50 (converted)",0.479 nM
same,IC (TGI),"[19]; RXF 393, printed RXP-393, renal cancer, read-out: Log10 TGI (converted)",3.09 nM
same,GI50,"[19]; RXF-393, renal cancer, read-out: averaged negative log10 GI50 (converted)",0.479 nM
same,GI50,[20]; [24],1 nM
same,IC (TGI),[20]; [25],10 nM
same,GI50,[20]; [26],1 nM
same,GI50,[21]; [24],7.76 nM
same,IC (TGI),[21]; [25],10 nM
same,GI50,[21]; [26],7.76 nM
same,GI50,[22]; [24],0.269 nM
same,IC (TGI),[22]; [25],10 nM
same,GI50,[22]; [26],0.269 nM
same,GI50,[23]; [24],0.389 nM
same,IC (TGI),[23]; [25],10 nM
same,GI50,[23]; [26],0.389 nM
